Measurements from the supplement of paper PMC10307832.

What was measured:
Assay in all cases: relative viability (nuclei count vs DMSO), 5 days (fraction); higher = more cells survive
NCI-H1993 = test system: NCI-H1993
Outline: (§1)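 Cells from lung cancer lines were seeded into 1536-well plates and, one day later, dosed by pin tool. Treatments were either a single drug or a fixed dose of an anchor drug with five library-drug doses (not always all listed) in √10 steps. After 5 days, nuclei were stained in a one-step fixation (final 0.05% Triton X-100, 1% formaldehyde, 1 ug/ml Hoechst) and counted on 4× images, and relative viability is the treated-to-vehicle nuclei ratio, as the median of duplicate plates.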

NCI-H1734 = test system: NCI-H1734
Outline: as §1

HCC-827 = test system: HCC-827
Outline: as §1

BEN = test system: BEN
Outline: as §1

HCC-366 = test system: HCC-366
Outline: as §1

NCI-H2009 = test system: NCI-H2009
Outline: as §1

SK-MES-1 = test system: SK-MES-1
Outline: as §1

NCI-H2405 = test system: NCI-H2405
Outline: as §1

LOU-NH91 = test system: LOU-NH91
Outline: as §1

HARA = test system: HARA
Outline: as §1

NCI-H2087 = test system: NCI-H2087
Outline: as §1

NCI-H1355 = test system: NCI-H1355
Outline: as §1

NCI-H2170 = test system: NCI-H2170
Outline: as §1

SK-LU-1 = test system: SK-LU-1
Outline: as §1

NCI-H661 = test system: NCI-H661
Outline: as §1

NCI-H1395 = test system: NCI-H1395
Outline: as §1

NCI-H2342 = test system: NCI-H2342
Outline: as §1

NCI-H647 = test system: NCI-H647
Outline: as §1

NCI-H1792 = test system: NCI-H1792
Outline: as §1

EKVX = test system: EKVX
Outline: as §1

NCI-H1437 = test system: NCI-H1437
Outline: as §1

NCI-H522 = test system: NCI-H522
Outline: as §1

Compound: CC(=O)O[C@@]12CO[C@@H]1C[C@H](O)[C@@]1(C)C(=O)[C@H](O)C3=C(C)[C@@H](OC(=O)[C@H](O)[C@@H](NC(=O)OC(C)(C)C)c4ccccc4)C[C@@](O)([C@@H](OC(=O)c4ccccc4)[C@H]21)C3(C)C [Docetaxel] + O=C(c1cc(Cc2n[nH]c(=O)c3ccccc23)ccc1F)N1CCN(C(=O)C2CC2)CC1 [Olaparib] (partner 8 µM)
- relative viability (NCI-H1993; first compound 0.0002 µM): 0.929
- relative viability (NCI-H1993; first compound 0.000632 µM): 0.918
- relative viability (NCI-H1993; first compound 0.002 µM): 0.793
- relative viability (NCI-H1993; first compound 0.006325 µM): 0.531
- relative viability (NCI-H1993; first compound 0.02 µM): 0.409
- relative viability (NCI-H1734; first compound 0.0002 µM): 0.498
- relative viability (NCI-H1734; first compound 0.000632 µM): 0.506
- relative viability (NCI-H1734; first compound 0.002 µM): 0.292
- relative viability (NCI-H1734; first compound 0.006325 µM): 0.324
- relative viability (NCI-H1734; first compound 0.02 µM): 0.196
- relative viability (HCC-827; first compound 0.0002 µM): 0.626
- relative viability (HCC-827; first compound 0.000632 µM): 0.662
- relative viability (HCC-827; first compound 0.002 µM): 0.329
- relative viability (HCC-827; first compound 0.006325 µM): 0.287
- relative viability (HCC-827; first compound 0.02 µM): 0.23
- relative viability (BEN; first compound 0.0002 µM): 1.11
- relative viability (BEN; first compound 0.000632 µM): 1.06
- relative viability (BEN; first compound 0.002 µM): 0.514
- relative viability (BEN; first compound 0.006325 µM): 0.357
- relative viability (BEN; first compound 0.02 µM): 0.275
- relative viability (HCC-366; first compound 0.0002 µM): 0.245
- relative viability (HCC-366; first compound 0.000632 µM): 0.115
- relative viability (HCC-366; first compound 0.002 µM): 0.0486
- relative viability (HCC-366; first compound 0.006325 µM): 0.0381
- relative viability (HCC-366; first compound 0.02 µM): 0.0133
- relative viability (NCI-H2009; first compound 0.0002 µM): 0.606
- relative viability (NCI-H2009; first compound 0.000632 µM): 0.79
- relative viability (NCI-H2009; first compound 0.002 µM): 0.562
- relative viability (NCI-H2009; first compound 0.006325 µM): 0.397
- relative viability (NCI-H2009; first compound 0.02 µM): 0.149
- relative viability (SK-MES-1; first compound 0.0002 µM): 0.719
- relative viability (SK-MES-1; first compound 0.000632 µM): 0.405
- relative viability (SK-MES-1; first compound 0.002 µM): 0.354
- relative viability (SK-MES-1; first compound 0.02 µM): 0.145
- relative viability (NCI-H2405; first compound 0.0002 µM): 0.875
- relative viability (NCI-H2405; first compound 0.000632 µM): 0.712
- relative viability (NCI-H2405; first compound 0.002 µM): 0.557
- relative viability (NCI-H2405; first compound 0.006325 µM): 0.419
- relative viability (NCI-H2405; first compound 0.02 µM): 0.329
- relative viability (LOU-NH91; first compound 0.0002 µM): 0.915
- relative viability (LOU-NH91; first compound 0.000632 µM): 0.839
- relative viability (LOU-NH91; first compound 0.002 µM): 0.567
- relative viability (LOU-NH91; first compound 0.006325 µM): 0.396
- relative viability (LOU-NH91; first compound 0.02 µM): 0.315
- relative viability (HARA; first compound 0.0002 µM): 0.858
- relative viability (HARA; first compound 0.000632 µM): 0.335
- relative viability (HARA; first compound 0.002 µM): 0.161
- relative viability (HARA; first compound 0.006325 µM): 0.21
- relative viability (HARA; first compound 0.02 µM): 0.0824
- relative viability (NCI-H2087; first compound 0.0002 µM): 0.586
- relative viability (NCI-H2087; first compound 0.000632 µM): 0.3
- relative viability (NCI-H2087; first compound 0.002 µM): 0.243
- relative viability (NCI-H2087; first compound 0.006325 µM): 0.125
- relative viability (NCI-H2087; first compound 0.02 µM): 0.0944
- relative viability (NCI-H1355; first compound 0.0002 µM): 0.732
- relative viability (NCI-H1355; first compound 0.000632 µM): 0.533
- relative viability (NCI-H1355; first compound 0.002 µM): 0.353
- relative viability (NCI-H1355; first compound 0.006325 µM): 0.203
- relative viability (NCI-H1355; first compound 0.02 µM): 0.164
- relative viability (NCI-H2170; first compound 0.0002 µM): 0.611
- relative viability (NCI-H2170; first compound 0.000632 µM): 0.475
- relative viability (NCI-H2170; first compound 0.002 µM): 0.342
- relative viability (NCI-H2170; first compound 0.006325 µM): 0.136
- relative viability (NCI-H2170; first compound 0.02 µM): 0.126
- relative viability (SK-LU-1; first compound 0.0002 µM): 0.479
- relative viability (SK-LU-1; first compound 0.000632 µM): 0.349
- relative viability (SK-LU-1; first compound 0.002 µM): 0.315
- relative viability (SK-LU-1; first compound 0.006325 µM): 0.256
- relative viability (SK-LU-1; first compound 0.02 µM): 0.167
- relative viability (NCI-H661; first compound 0.0002 µM): 0.738
- relative viability (NCI-H661; first compound 0.000632 µM): 0.701
- relative viability (NCI-H661; first compound 0.002 µM): 0.592
- relative viability (NCI-H661; first compound 0.006325 µM): 0.434
- relative viability (NCI-H661; first compound 0.02 µM): 0.406
- relative viability (NCI-H1395; first compound 0.0002 µM): 0.502
- relative viability (NCI-H1395; first compound 0.000632 µM): 0.469
- relative viability (NCI-H1395; first compound 0.002 µM): 0.481
- relative viability (NCI-H1395; first compound 0.006325 µM): 0.341
- relative viability (NCI-H1395; first compound 0.02 µM): 0.339
- relative viability (NCI-H2342; first compound 0.0002 µM): 0.525
- relative viability (NCI-H2342; first compound 0.000632 µM): 0.456
- relative viability (NCI-H2342; first compound 0.002 µM): 0.312
- relative viability (NCI-H2342; first compound 0.006325 µM): 0.348
- relative viability (NCI-H2342; first compound 0.02 µM): 0.301
- relative viability (NCI-H647; first compound 0.0002 µM): 0.449
- relative viability (NCI-H647; first compound 0.000632 µM): 0.132
- relative viability (NCI-H647; first compound 0.002 µM): 0.0799
- relative viability (NCI-H647; first compound 0.006325 µM): 0.0764
- relative viability (NCI-H647; first compound 0.02 µM): 0.0432
- relative viability (NCI-H1792; first compound 0.0002 µM): 0.281
- relative viability (NCI-H1792; first compound 0.000632 µM): 0.306
- relative viability (NCI-H1792; first compound 0.002 µM): 0.0724
- relative viability (NCI-H1792; first compound 0.006325 µM): 0.0761
- relative viability (NCI-H1792; first compound 0.02 µM): 0.0428
- relative viability (EKVX; first compound 0.0002 µM): 0.839
- relative viability (EKVX; first compound 0.000632 µM): 0.557
- relative viability (EKVX; first compound 0.002 µM): 0.387
- relative viability (EKVX; first compound 0.006325 µM): 0.316
- relative viability (EKVX; first compound 0.02 µM): 0.167
- relative viability (NCI-H1437; first compound 0.0002 µM): 0.613
- relative viability (NCI-H1437; first compound 0.000632 µM): 0.442
- relative viability (NCI-H1437; first compound 0.002 µM): 0.384
- relative viability (NCI-H1437; first compound 0.006325 µM): 0.269
- relative viability (NCI-H1437; first compound 0.02 µM): 0.177
- relative viability (NCI-H522; first compound 0.0002 µM): 0.653
- relative viability (NCI-H522; first compound 0.000632 µM): 0.459
- relative viability (NCI-H522; first compound 0.002 µM): 0.532
- relative viability (NCI-H522; first compound 0.006325 µM): 0.499
- relative viability (NCI-H522; first compound 0.02 µM): 0.377
